# Values joined by “and” are separate entries in the source; they are usually repeats but may differ in a detail not shown here. Identical values can stand only once. “Also recorded” adds a separate entry of the source. No end group written: not given here. *: point of attachment. Myristoyl = CCCCCCCCCCCCCC(=O)*
# Columns and labels:
# TNFα = TNFα concentration in peripheral blood of CIA rats (ELISA); assay type: in vivo, Wistar rats
# Description: (§1) The arthritis rats were randomly divided into 4 groups from Day 4 to Day 7 after arthritis induced therein. There were 3 treatment groups and one control group. Each group consisted of 10 rats. Non-T cell binding peptide 267A was subcutaneously injected into the base of tail of each rat every 3 days. The peptides were dissolved in sterile distilled water before injection. The concentrations used in the 3 treatment groups were 100 μg/ml, 500 μg/ml and 1000 μg/ml respectively, 100 μl for each rat, and the control group received sterile distilled water only. The volume change of right feet was measured by water-expelling method every day. Using the aforementioned method of arthritis evaluation, the arthritis scores were given every day based on the number of joints with arthritis. The rats were killed 18 days after treatment. The peripheral blood was collected. The serum concentrations of the respective cytokines were detected using ELISA kits of TNFα and IL-2 (JingMei Biotech Co. Ltd, ShenZhen, P.R.C). In the meanwhile, the joints of the right limb were detached, fixed, decalcified, sectioned and subjected to HE staining.
# [1] = test system: collagen-induced arthritis (CIA) in Wistar rats; test: Collagen-induced arthritis (CIA) induced by bovine CII, treated by subcutaneous peptide injection; assay type: in vivo; settings: for number of swollen joints, Average: * significantly reduced compared with the control group (p < 0.01), control 6.2
# [2] = test system: T cell activation (L57.23 cell with 3.19 cell; Priess cell with 3838 cell); test: T cell activation assay: antigen presenting cells, peptide and T cell clones co-incubated; IL-2 in supernatant read by CTLL proliferation (MTT); assay type: cell-based; settings: for inhibition of the T cell activation effects of wild type DRβ1 binding peptide: co-incubated with wild type peptide and T cell activation system, concentration dependent, FIG. 4
# [3] = test system: collagen-induced arthritis (CIA) in Wistar rats; test: Collagen-induced arthritis (CIA) induced by bovine CII, treated by subcutaneous peptide injection; assay type: in vivo; settings: for suppression / alleviation of arthritis in rats: CIA rats, result in words
# Description: In the animal experiment protocol of the present invention, collagen-induced arthritis (CIA) in Wistar rats was induced by bovine CII. The non-T cell binding peptides of the present invention were used to treat the arthritis rats.
# The experimental arthritis model used in the present invention is collagen-induced arthritis (CIA) which is recognized internationally. The experimental animals used were American Wistar rats, which belong to a blocking colony. They were cultured successfully by Wistar Institute of USA in 1907. They are among the species that were introduced into our country earliest and were used most widely. The rats used in this experiment were all cultured in the animal center of People's Hospital, Peking University (SPF degree II). The rats were cultured in the polyacylene cages cushioned by serrago. The lightness/darkness cycle was maintained as 12 h/12 h. The water and food were freely available to the rats. All the rats used in the experiment were male, 8-10 weeks of age, body weight 180±10 g. All the protocols related to animals in the experiment were in accordance with Chinese Experimental Animal Regulations.
# The bovine type II collagen (catalogue number: C11188) was bought from Sigma Co. Ltd. It was dissolved in acetic acid to make a solution with the final concentration of 8 mg/ml. Then the solution was emulsified with complete Freund's adjuvant (Detroit, USA) of the equal volume. 100 μl of the emulsified solution was injected into the footpad of the right limb of each Wistar rat. The injection dose was […]. Thus the arthritis model of Wistar rats was successfully established.
# The swelling of metatarsophalangeal joints and interphalangeal joints was found on all the rats about 15 days after the induction of arthritis in Wistar rats with CII. A 0-16 scale was used to evaluate the extent of arthritis. Each of the 4 paws was assigned a score using a 0-4 scale, wherein zero=no joint swelling, 1=swelling of one joint, 2=swelling of 2 joints, 3=swelling of 3 joints, and 4=swelling of 4 joints, which is the swelling of the whole paw. Four paws were scored respectively, and these scores were summed up to give a total score. Beginning 2 days after the immunization, the rats were subjected to an inspection every day until the experiment had been finished.
# as §1
# [4] = test system: T cell activation (L57.23 cell with 3.19 cell; Priess cell with 3838 cell); test: T cell activation assay: antigen presenting cells, peptide and T cell clones co-incubated; IL-2 in supernatant read by CTLL proliferation (MTT); assay type: cell-based; settings: FIG. 3; for effect (stimulation) on T cell activation compared with wild type CII peptide: peptide alone with antigen presenting cells and T cells, 48 hours
# Text: Antigen polypeptides are expressed through antigen presenting cells and activate T cells, resulting in the production of inflammation factors in vivo, and further resulting in the typical pathologic changes of rheumatoid arthritis. In the experiment, the inhibition effects of non-T cell binding peptides on T cell activation were detected by measuring T cell proliferation and Interleukin (IL)-2 level. Two sets of systems of antigen presenting and T cell activation, which are recognized internationally, are used in the research.
# Wherein one set of antigen presenting and T cell activation system is composed of L57.23 cell and 3.19 cell, and the other set of system is composed of Priess cell and 3838 cell. By comparing the difference in the effects of said seven non-T cell binding peptides on antigen presenting and T cell activation, non-T cell binding peptides which have significant inhibition effect(s) on T cell activation were screened.
# Firstly, the antigen presenting cells, different non-T cell binding peptides (10 μg/ml) and corresponding T cells were added into the reaction system and co-incubated at 37° C. for 48 hours. The supernatant was obtained and added into well-grown IL-2 dependent cells (CTLL). The CTLL cell proliferation was detected by using titrazolium salt method (MTT). Thus the inhibition effects of non-T cell binding peptides on T cell activation were determined.
# [5] = 10 mg group, right hind foot, individual rats
# [6] = 50 mg group, right hind foot, individual rats
# [7] = Day 8, 10, 12 and 14, three treatment groups 100, 500, 1000 μg/ml, 100 μl s.c. every 3 days
substance,measurement,setting,value
"FKGEAGPKGE (Myristoyl-FKGEAGPKGE) [267A, amino-terminal linked to myristic acid]",concentration of TNFα in peripheral blood vs control group,"TNFα; 100 μg/ml treated group, p<0.05, FIG. 7",significantly lower
same,concentration of TNFα in peripheral blood vs control group,TNFα; the other two treatment groups (500 and 1000 μg/ml),No significant variety
same,"number of swollen joints, Average",[1]; 10 mg group average,3.15*
same,Hind foot volume,[1]; [5],1.2 ml (2×) and 1.5 ml and 1.4 ml and 1.3 ml (5×) and 1.1 ml
same,number of swollen joints,[1]; [5],2 (2×) and 4 (3×) and 3 (2×) and 1 (2×) and 6
same,"number of swollen joints, Average",[1]; 50 mg group average,3.25*
same,Hind foot volume,[1]; [6],1.4 ml (5×) and 1.7 ml and 1.3 ml and 1.1 ml and 1.6 ml (2×)
same,inhibition of the T cell activation effects of wild type DRβ1 binding peptide,[2],significant effects
same,number of swollen joints,[3]; [6],4 (2×) and 6 (2×) and 2 and 1 (3×) and 3 (2×)
same,swelling of the right feet,"[3]; 3 treatment groups, within the first 2 weeks after treatment",alleviated
same,difference among the 3 treatment groups in right foot swelling ratios and arthritis scores,"[3]; 100, 500 and 1000 μg/ml groups, Day 8, 10, 12 and 14",no significant difference
same,suppression / alleviation of arthritis in rats,[3],"significant effects; also recorded: significantly suppress arthritis in rats and alleviate the swelling of joints, and shorten the disease course; also recorded: significantly alleviated"
same,arthritis score vs control group,[3]; [7],significantly lower
same,swelling ratio of right feet vs control group,[3]; [7],significantly lower
same,remission ratio of CIA vs control group,"[3]; three treatment groups, Day 8 and Day 16 after treatment, p<0.05",remission ratio(s) of CIA in the control group are significantly lower than that in the three treatment groups; also recorded: significantly higher
"FKGEGAGAGE (Myristoyl-FKGEGAGAGE) [Mut 267-270, amino-terminal linked to myristic acid]",effect (stimulation) on T cell activation compared with wild type CII peptide,[4],"none of polypeptides Mut 267-270, Mut 268-270, Mut 269-270, 269A and 270A has significant effect on T cell activation"
same,inhibition of the T cell activation effects of wild type DRβ1 binding peptide,[2],significant effects
same,suppression / alleviation of arthritis in rats,[3],significant effects
"FKGEQAGAGE (Myristoyl-FKGEQAGAGE) [Mut 268-270, amino-terminal linked to myristic acid]",effect (stimulation) on T cell activation compared with wild type CII peptide,[4],"none of polypeptides Mut 267-270, Mut 268-270, Mut 269-270, 269A and 270A has significant effect on T cell activation"
"FKGEQGAAGE (Myristoyl-FKGEQGAAGE) [Mut 269-270, amino-terminal linked to myristic acid]",effect (stimulation) on T cell activation compared with wild type CII peptide,[4],"none of polypeptides Mut 267-270, Mut 268-270, Mut 269-270, 269A and 270A has significant effect on T cell activation"
"FKGEQGAKGE (Myristoyl-FKGEQGAKGE) [269A, amino-terminal linked to myristic acid]",effect (stimulation) on T cell activation compared with wild type CII peptide,[4],"none of polypeptides Mut 267-270, Mut 268-270, Mut 269-270, 269A and 270A has significant effect on T cell activation"
"FKGEQGPAGE (Myristoyl-FKGEQGPAGE) [270A, amino-terminal linked to myristic acid]",effect (stimulation) on T cell activation compared with wild type CII peptide,[4],"none of polypeptides Mut 267-270, Mut 268-270, Mut 269-270, 269A and 270A has significant effect on T cell activation"
"wild type DRβ1 binding peptide: wild type CII263-272 polypeptide (F K G E Q G P K G E), contains the antigen epitope of Collagen type II (FKGEQGPKGE) [reference compound]",concentration of IL-2 in the supernatant,"[4]; non-T cell binding peptides compared with wild type peptide, p<0.01",high concentration of IL-2
same,stimulation of T cell proliferation,"[2]; at 400, 200, 80, 40 and 20 μg/ml",able to stimulate T cell proliferation

# — patent US7291600B2, “Non-T cell binding peptides and their uses” (priority 2002, dated 2007)
